Here are results for 3 molecules from US10919841B2, “Monoamine reuptake inhibitors” (Research Triangle Institute, priority 2009, dated 2021).

Each structure is given as a SMILES string.

T3 sequence (P23975 whole entry): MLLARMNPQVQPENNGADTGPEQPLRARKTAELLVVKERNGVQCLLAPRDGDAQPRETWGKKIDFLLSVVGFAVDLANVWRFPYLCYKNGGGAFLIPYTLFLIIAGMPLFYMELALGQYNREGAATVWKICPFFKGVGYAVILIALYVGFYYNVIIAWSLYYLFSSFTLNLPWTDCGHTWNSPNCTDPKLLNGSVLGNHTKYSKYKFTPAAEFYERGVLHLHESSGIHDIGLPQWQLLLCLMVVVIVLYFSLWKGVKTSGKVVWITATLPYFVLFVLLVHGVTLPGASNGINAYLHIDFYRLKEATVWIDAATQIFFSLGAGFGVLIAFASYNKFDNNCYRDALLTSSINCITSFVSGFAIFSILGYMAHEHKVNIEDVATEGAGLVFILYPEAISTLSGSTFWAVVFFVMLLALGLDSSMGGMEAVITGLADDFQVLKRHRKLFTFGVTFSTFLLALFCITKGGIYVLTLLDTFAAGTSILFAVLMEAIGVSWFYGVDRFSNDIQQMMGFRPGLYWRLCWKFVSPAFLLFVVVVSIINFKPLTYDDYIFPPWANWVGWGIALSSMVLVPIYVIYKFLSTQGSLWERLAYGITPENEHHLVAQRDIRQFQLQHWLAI

The target of one assay is T1, (h)DAT (Homo sapiens, UniProt Q01959).
T1 construct: expressed in transfected cells
T1 sequence (Q01959 whole entry): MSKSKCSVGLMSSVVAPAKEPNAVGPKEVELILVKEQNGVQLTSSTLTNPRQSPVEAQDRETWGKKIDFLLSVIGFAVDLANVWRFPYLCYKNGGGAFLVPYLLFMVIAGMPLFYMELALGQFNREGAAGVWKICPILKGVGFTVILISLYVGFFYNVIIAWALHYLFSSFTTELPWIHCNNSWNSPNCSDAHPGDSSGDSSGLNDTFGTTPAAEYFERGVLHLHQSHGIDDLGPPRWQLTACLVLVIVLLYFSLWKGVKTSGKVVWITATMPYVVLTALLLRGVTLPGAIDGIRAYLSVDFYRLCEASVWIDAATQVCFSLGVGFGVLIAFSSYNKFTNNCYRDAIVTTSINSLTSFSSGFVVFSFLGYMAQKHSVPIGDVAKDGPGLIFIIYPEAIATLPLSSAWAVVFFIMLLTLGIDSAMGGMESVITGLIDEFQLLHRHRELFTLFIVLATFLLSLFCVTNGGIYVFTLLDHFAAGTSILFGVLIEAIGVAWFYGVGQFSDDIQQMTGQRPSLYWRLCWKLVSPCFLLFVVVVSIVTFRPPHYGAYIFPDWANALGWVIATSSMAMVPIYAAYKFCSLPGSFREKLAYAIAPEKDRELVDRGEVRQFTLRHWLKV
Kind of assay: competition binding with [125I]RTI-55 at (h)DAT stably expressed in HEK293 cells. To be noted: mean ± standard error of three independent experiments.
As for `CCCC(NC(C)(C)C)C(=O)c1cccc(Cl)c1` (centres unmarked) [Compound 2p, 2-(N-tert-Butylamino)-3′-chloropentanophenone], the inhibition constant (Ki) – broadly, a dissociation constant, usually derived from enzyme kinetics or from competition with a known ligand – was 96 nM.
The same measure, in the same setting: under `CCCCCC(NC(C)(C)C)C(=O)c1cccc(Cl)c1` (centres unmarked) [Compound 2r, 2-(N-tert-Butylamino)-3′-chloroheptanophenone] stands 709 nM.

The next assay deals with T1, (h)DAT. As to the kind of experiment: block of [3H]dopamine reuptake in HEK-(h)DAT cells.
Conditions: not given
Format: cell-based.
`CCCNC(C)C(=O)c1cccc(Cl)c1` (centres unmarked) [Compound 2v, 2-(N-Propylamino)-3′-chloropropiophenone]: the “DA uptake inhibition, in words” value is “inactive”.

The same assay, now with this note: mean ± standard error of three independent experiments; read-out: Uptake, IC50 [3H]DA.
For `CCCC(NC(C)(C)C)C(=O)c1cccc(Cl)c1` (centres unmarked) [Compound 2p, 2-(N-tert-Butylamino)-3′-chloropentanophenone], the IC50 (in general, the concentration that gives 50% inhibition) worked out at 33 ± 7 nM.
Still for that read-out and setting: under `CCCCCC(NC(C)(C)C)C(=O)c1cccc(Cl)c1` (centres unmarked) [Compound 2r, 2-(N-tert-Butylamino)-3′-chloroheptanophenone] stands 1570 nM.

The assay is the same for the next values; noted with them: relative to bupropion.
`CCCC(NC(C)(C)C)C(=O)c1cccc(Cl)c1` (centres unmarked) [Compound 2p, 2-(N-tert-Butylamino)-3′-chloropentanophenone]: the “times more potent than bupropion as DA uptake inhibitor” value came out at 29 times.

The target of the next assay is T2, (h)SERT (Homo sapiens, UniProt P31645).
T2 construct: expressed in transfected cells; host or cells: HEK293
T2 sequence (P31645 whole entry): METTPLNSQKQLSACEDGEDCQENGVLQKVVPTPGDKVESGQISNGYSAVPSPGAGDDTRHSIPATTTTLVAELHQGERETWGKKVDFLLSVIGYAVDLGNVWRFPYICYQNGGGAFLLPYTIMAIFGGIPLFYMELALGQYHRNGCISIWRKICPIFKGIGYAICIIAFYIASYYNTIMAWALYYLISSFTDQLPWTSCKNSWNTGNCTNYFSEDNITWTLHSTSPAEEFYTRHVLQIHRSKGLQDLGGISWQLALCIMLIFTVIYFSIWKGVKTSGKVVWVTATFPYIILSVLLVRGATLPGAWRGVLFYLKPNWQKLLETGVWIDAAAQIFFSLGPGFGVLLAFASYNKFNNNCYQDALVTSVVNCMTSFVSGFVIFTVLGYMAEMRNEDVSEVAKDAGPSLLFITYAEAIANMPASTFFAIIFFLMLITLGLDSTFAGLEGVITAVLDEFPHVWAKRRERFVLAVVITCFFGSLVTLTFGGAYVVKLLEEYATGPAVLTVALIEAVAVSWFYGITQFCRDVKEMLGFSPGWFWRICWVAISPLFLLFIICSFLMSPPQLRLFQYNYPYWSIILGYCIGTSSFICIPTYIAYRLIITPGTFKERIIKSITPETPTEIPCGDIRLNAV
As to the kind of experiment: block of [3H]serotonin reuptake in HEK-(h)SERT cells. Format: cell-based.
Conditions: not given
`CCCNC(C)C(=O)c1cccc(Cl)c1` (centres unmarked) [Compound 2v, 2-(N-Propylamino)-3′-chloropropiophenone]: the “5HT uptake inhibition, in words” value is “inactive”.

Another assay concerns mice. As to the kind of experiment: locomotor activity, 1-h observation protocol. Format: in vivo. To be noted: Mus musculus, 0.5 h, read-out: Locomotor Activity 1-Hour % Peak Cocaine.
As for `CCCC(NC(C)(C)C)C(=O)c1cccc(Cl)c1` (centres unmarked) [Compound 2p, 2-(N-tert-Butylamino)-3′-chloropentanophenone], the Emax came out at 96%.
Same read-out and setting: under `CCCCCC(NC(C)(C)C)C(=O)c1cccc(Cl)c1` (centres unmarked) [Compound 2r, 2-(N-tert-Butylamino)-3′-chloroheptanophenone] stands 66%.

Staying with this assay, now noted: Mus musculus; dose to produce 50% of the compound's maximal effect; 1-h.
In the case of `CCCC(NC(C)(C)C)C(=O)c1cccc(Cl)c1` (centres unmarked) [Compound 2p, 2-(N-tert-Butylamino)-3′-chloropentanophenone], the median effective dose (ED50) (usually the dose that gives a 50% effect, or the effect in half of the subjects) stood at 17.2 mg/kg.
Same read-out and setting: then `CCCCCC(NC(C)(C)C)C(=O)c1cccc(Cl)c1` (centres unmarked) [Compound 2r, 2-(N-tert-Butylamino)-3′-chloroheptanophenone], with 5.82 mg/kg.

The assay is the same for the next values; noted with them: dose to produce 50% of the compound's maximal effect; 1-h.
For `CCCNC(C)C(=O)c1cccc(Cl)c1` (centres unmarked) [Compound 2v, 2-(N-Propylamino)-3′-chloropropiophenone], the “Locomotor Activity 1-Hour ED50” value is listed as “NE^f”.

The subject of another assay is mice. As to the kind of experiment: locomotor activity, 8-h time course protocol. Type of assay: in vivo. To be noted: 1-h and 8-h tests compared.
As to `CCCC(NC(C)(C)C)C(=O)c1cccc(Cl)c1` (centres unmarked) [Compound 2p, 2-(N-tert-Butylamino)-3′-chloropentanophenone], the “locomotor stimulant activity across the 1-h and 8-h protocols, in words” value is on record as “activity similar to cocaine in the 1-h protocol but weakened significantly in the 8-h time-course study”.
Take `CCCCCC(NC(C)(C)C)C(=O)c1cccc(Cl)c1` (centres unmarked) [Compound 2r, 2-(N-tert-Butylamino)-3′-chloroheptanophenone]: the “locomotor stimulant activity across the 1-h and 8-h protocols, in words” value is “weak stimulants in both tests”.

The same assay, now with this note: Mus musculus, read-out: Locomotor Activity 8-Hour % Peak Cocaine, percent of cocaine's maximal effect, 30 min period of maximum stimulation.
`CCCC(NC(C)(C)C)C(=O)c1cccc(Cl)c1` (centres unmarked) [Compound 2p, 2-(N-tert-Butylamino)-3′-chloropentanophenone]: the Emax was determined as 72%.
`CCCCCC(NC(C)(C)C)C(=O)c1cccc(Cl)c1` (centres unmarked) [Compound 2r, 2-(N-tert-Butylamino)-3′-chloroheptanophenone]: the Emax came to 78%.

The assay is the same for the next values; noted with them: Mus musculus; dose to produce 50% of the compound's maximal effect; 8-h; read-out: Locomotor Activity 8-Hour ED50.
On to `CCCC(NC(C)(C)C)C(=O)c1cccc(Cl)c1` (centres unmarked) [Compound 2p, 2-(N-tert-Butylamino)-3′-chloropentanophenone], for which the 50% effective dose (ED50) is 16.3 mg/kg.
In the case of `CCCCCC(NC(C)(C)C)C(=O)c1cccc(Cl)c1` (centres unmarked) [Compound 2r, 2-(N-tert-Butylamino)-3′-chloroheptanophenone], the ED50 is 13.4 mg/kg.

The assay is the same for the next values; noted with them: dose to produce 50% of the compound's maximal effect; 8-h.
For the molecule `CCCNC(C)C(=O)c1cccc(Cl)c1` (centres unmarked) [Compound 2v, 2-(N-Propylamino)-3′-chloropropiophenone], the “Locomotor Activity 8-Hour ED50” value is recorded as “NE^f”.

The same assay, now with this note: duration of locomotor activity.
Turning to `CCCC(NC(C)(C)C)C(=O)c1cccc(Cl)c1` (centres unmarked) [Compound 2p, 2-(N-tert-Butylamino)-3′-chloropentanophenone], the “Locomotor Activity 8-Hour Time, min Period, length” value was in the range of 210 to 480 min.
For `CCCCCC(NC(C)(C)C)C(=O)c1cccc(Cl)c1` (centres unmarked) [Compound 2r, 2-(N-tert-Butylamino)-3′-chloroheptanophenone], the “Locomotor Activity 8-Hour Time, min Period, length” value lay within 280 to 460 min.

The same assay, now with this note: time period of maximum effect.
`CCCC(NC(C)(C)C)C(=O)c1cccc(Cl)c1` (centres unmarked) [Compound 2p, 2-(N-tert-Butylamino)-3′-chloropentanophenone]: the “Locomotor Activity 8-Hour Time, min Period, max” value lay in the range of 90 to 120 min.
Still for that read-out and setting: then `CCCCCC(NC(C)(C)C)C(=O)c1cccc(Cl)c1` (centres unmarked) [Compound 2r, 2-(N-tert-Butylamino)-3′-chloroheptanophenone], with 60 to 90 min.

The next assay addresses T3, (h)NET (Homo sapiens, UniProt P23975). Kind of assay: block of [3H]norepinephrine reuptake in HEK-(h)NET cells.
Conditions: not given
Regarding `CCCNC(C)C(=O)c1cccc(Cl)c1` (centres unmarked) [Compound 2v, 2-(N-Propylamino)-3′-chloropropiophenone], the “NE uptake inhibition, in words” value is “inactive”.

Still in this assay, the particulars now being: read-out: Uptake, IC50 [3H]NE; mean ± standard error of three independent experiments.
For the molecule `CCCC(NC(C)(C)C)C(=O)c1cccc(Cl)c1` (centres unmarked) [Compound 2p, 2-(N-tert-Butylamino)-3′-chloropentanophenone], the IC50 was 472 nM.
On the same count and under the same terms, under `CCCCCC(NC(C)(C)C)C(=O)c1cccc(Cl)c1` (centres unmarked) [Compound 2r, 2-(N-tert-Butylamino)-3′-chloroheptanophenone] stands 2000 nM.

The subject of a further assay is rats. As to the kind of experiment: cocaine discrimination (2-lever operant), i.p. administration. The conditions noted are these: Rattus norvegicus, ip, read-out: % cocaine lever responding.
Turning to `CCCC(NC(C)(C)C)C(=O)c1cccc(Cl)c1` (centres unmarked) [Compound 2p, 2-(N-tert-Butylamino)-3′-chloropentanophenone], the responders at 5 mg/kg worked out at 1%, the responders at 10 mg/kg worked out at 33% and the responders at 25 mg/kg stood at 83%.
For `CCCCCC(NC(C)(C)C)C(=O)c1cccc(Cl)c1` (centres unmarked) [Compound 2r, 2-(N-tert-Butylamino)-3′-chloroheptanophenone], the responders at 5 mg/kg is 0%, the responders at 10 mg/kg came out at 0%, the responders at 25 mg/kg was 34% and the responders at 50 mg/kg came to 17%.

The assay is the same for the next values; noted with them: Rattus norvegicus, ip, read-out: Full Generalization ED50.
Consider `CCCC(NC(C)(C)C)C(=O)c1cccc(Cl)c1` (centres unmarked) [Compound 2p, 2-(N-tert-Butylamino)-3′-chloropentanophenone], for which the 50% effective dose (ED50) is 11.9 mg/kg.

A further assay deals with rats. Kind of assay: cocaine discrimination time-course study, oral administration. To be noted: Rattus norvegicus, po, 0.75 h.
Turning to `CCCC(NC(C)(C)C)C(=O)c1cccc(Cl)c1` (centres unmarked) [Compound 2p, 2-(N-tert-Butylamino)-3′-chloropentanophenone], the ED50 amounted to 22.2 mg/kg.

The assay is the same for the next values; noted with them: p.o., 45 min, 50 mg/kg.
As for `CCCC(NC(C)(C)C)C(=O)c1cccc(Cl)c1` (centres unmarked) [Compound 2p, 2-(N-tert-Butylamino)-3′-chloropentanophenone], the generalization to cocaine entry is listed as “partial generalization”.

Still in this assay, the particulars now being: p.o., 45 min, 100 mg/kg.
As for `CCCC(NC(C)(C)C)C(=O)c1cccc(Cl)c1` (centres unmarked) [Compound 2p, 2-(N-tert-Butylamino)-3′-chloropentanophenone], the generalization to cocaine entry is reported as “full generalization”.

Still in this assay, the particulars now being: p.o., 90 min, 100 mg/kg.
Consider `CCCC(NC(C)(C)C)C(=O)c1cccc(Cl)c1` (centres unmarked) [Compound 2p, 2-(N-tert-Butylamino)-3′-chloropentanophenone], for which the generalization to cocaine result was “full generalization”.

Still in this assay, the particulars now being: p.o., 180 min, 100 mg/kg.
Regarding `CCCC(NC(C)(C)C)C(=O)c1cccc(Cl)c1` (centres unmarked) [Compound 2p, 2-(N-tert-Butylamino)-3′-chloropentanophenone], the generalization to cocaine entry is given as “partial generalization”.

Another assay has as its target T3, (h)NET. Kind of assay: competition binding with [125I]RTI-55 at (h)NET stably expressed in HEK293 cells. To be noted: read-out: Binding, Ki NET; mean ± standard error of three independent experiments.
In the case of `CCCC(NC(C)(C)C)C(=O)c1cccc(Cl)c1` (centres unmarked) [Compound 2p, 2-(N-tert-Butylamino)-3′-chloropentanophenone], the Ki is 1170 nM.
On the same count and under the same terms, under `CCCCCC(NC(C)(C)C)C(=O)c1cccc(Cl)c1` (centres unmarked) [Compound 2r, 2-(N-tert-Butylamino)-3′-chloroheptanophenone] stands 4300 nM.
